For experiment [1], the system named is IL-23-stimulated Kit225 T cells with STAT-dependent luciferase reporter. Kind of experiment: Kit225 T cell assay, IL-23 stimulated STAT-dependent luciferase reporter. The format is cell-based, human. The note with it: Homo sapiens, KIT225, read-out: IL-23 Kit225 Reporter, LE (IC50, uM). As for the experimental part: (§1) Kit225 T cells with a stably-integrated STAT-dependent luciferase reporter were plated in RPMI (GIBCO) containing 10% heat-inactivated FBS (GIBCO) and 100 U/mL PenStrep (GIBCO). The cells were then stimulated with either 20 ng/mL human recombinant IL-23 or 200 U/mL human recombinant IFNα (PBL InterferonSource) for 5-6 hours. Luciferase expression was measured using the STEADY-GLO® Luciferase Assay System (PROMEGA®) according to the manufacturer's instructions.
A general note: A reporter such as luciferase makes a cellular process visible.

In experiment [2] the test system is IFNα-stimulated Kit225 T cells with STAT-dependent luciferase reporter. Kind of experiment: Kit225 T cell assay, IFNα stimulated STAT-dependent luciferase reporter. The note with it: Homo sapiens, KIT225, read-out: IFNa Kit225 Reporter, LE (IC50, uM). The format is cell-based, human. The method, then: as §1
Experiment [3] concerns the target T1, recombinantly expressed His-tagged protein corresponding to amino acids 575-869 of human Tyk2 (Homo sapiens, UniProt P29597).
T1 construct: made in house
The experiment can be described thus: Probe displacement assay (scintillation proximity, radiolabeled probe). The format is binding. The method, then:
The probe displacement assay is conducted as follows: In a […], test compounds along with recombinantly expressed His-tagged protein corresponding to amino acids 575-869 of human Tyk2 (sequence shown below) at 2.5 nM, 40 nM ((R)—N-(1-(3-(8-methyl-5-(methylamino)-8H-imidazo[4,5-d]thiazolo[5,4-b]pyridin-2-yl)phenyl)ethyl)-2-([^3H]methylsulfonyl)benzamide) (preparation described below) and 80 μg/mL Copper His-Tag scintillation proximity assay beads (Perkin Elmer, Catalog #RPNQ0095) in 50 mM HEPES, pH 7.5, containing 100 μg/mL bovine serum albumin and 5% DMSO were incubated for 30 minutes at room temperature. […] The IC50 value is defined as the concentration of test compound required to inhibit radiolabeled probe binding by 50%.
Protein Sequence of recombinant Hig-tagged Tyk2 (575-869):
The preparation of radiolabeled probe, (R)—N-(1-(3-(8-methyl-5-(methylamino)-8H-imidazo[4,5-d]thiazolo[5,4-b]pyridin-2-yl)phenyl)ethyl)-2-([^3H]methylsulfonyl)benzamide, was performed as described below: […]
Background: Scintillation proximity formats need no separation of bound from free tracer.

T1 sequence (P29597 with tags, fused parts or gaps): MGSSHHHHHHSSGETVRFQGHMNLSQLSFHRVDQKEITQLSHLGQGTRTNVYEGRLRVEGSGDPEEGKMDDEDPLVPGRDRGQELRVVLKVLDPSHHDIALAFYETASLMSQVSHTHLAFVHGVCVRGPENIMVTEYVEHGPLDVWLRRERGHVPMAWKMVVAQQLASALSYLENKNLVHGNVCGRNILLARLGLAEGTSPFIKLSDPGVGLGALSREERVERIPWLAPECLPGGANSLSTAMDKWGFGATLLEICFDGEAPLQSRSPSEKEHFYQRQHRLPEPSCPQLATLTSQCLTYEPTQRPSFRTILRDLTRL

By IC50 is commonly meant the midpoint of a concentration-inhibition curve. The EC50 is the concentration giving half of the maximal effect. In the case of `CNc1cc(Nc2ccsc2C(=O)Nc2cccnc2)nn2c(C(=O)NC3CC3)cnc12` [Example 46], the IC50 in experiment [1] was 0.1 µM; in experiment [2], 0.12 µM. For the same compound, the EC50 in experiment [3] was 8 nM.
Take `CNc1cc(Nc2ccsc2C(=O)Nc2ccc(F)cc2)nn2c(C(=O)NC3CC3)cnc12` [Example 45]: the IC50 in experiment [1] came to 0.22 µM; in experiment [2] it was 0.13 µM. Moreover, the EC50 in experiment [3] was determined as 20 nM.
For `CNc1cc(Nc2cn(C)nc2C(=O)Nc2ccncc2)nn2c(C(=O)NC3CC3)cnc12` [Example 6], in that order: 0.07 µM, 0.19 µM and 3.84 nM.
For `CNc1cc(Nc2csnc2C(=O)Nc2ccc(F)cc2)nn2c(C(=O)NC3CC3)cnc12` [Example 66], in that order: 0.4 µM, 0.11 µM and 10 nM.
Take `[2H]C([2H])([2H])NC(=O)c1sccc1Nc1cc(NC)c2ncc(C(=O)NCCOC)n2n1` [Example 48]: the figures for the 50% inhibitory concentration (IC50) in experiment [1] and in experiment [2] were 0.15 µM and 0.08 µM, respectively. For the same compound, in experiment [3], the EC50 was determined as 20 nM.
Taken in the same sequence, the figures for `[2H]C([2H])([2H])NC(=O)c1nscc1Nc1cc(NC)c2ncc(C(=O)NCc3nccs3)n2n1` [Example 70] were 0.42 µM, 0.11 µM and 20 nM.
Turning to `CCCNC(=O)c1ncsc1Nc1cc(NC)c2ncc(C(=O)NC3CC3)n2n1` [Example 80], the IC50 was 0.14 µM in experiment [1] and 0.13 µM in experiment [2]. Also, in experiment [3], the EC50 is 20 nM.
Taken in the same sequence, the figures for `CNc1cc(Nc2cn(C)nc2C(=O)Nc2ccc(OC)cc2)nn2c(C(=O)NC3CC3)cnc12` [Example 12] were 0.12 µM, 0.11 µM and 7.59 nM.
Taken in the same sequence, the figures for `CNc1cc(Nc2cn(C)nc2C(=O)NCC(C)C)nn2c(C(=O)NC3CC3)cnc12` [Example 17] were 0.16 µM, 0.49 µM and 40 nM.
For the compound `CNc1cc(Nc2cn(C)nc2C(=O)NC(C)C)nn2c(C(=O)NC3CC3)cnc12` [Example 9], the half-inhibitory concentration (IC50) in experiment [1] was 0.65 µM; in experiment [2], 0.48 µM. Moreover, the EC50 in experiment [3] was 30 nM.
For `CNc1cc(Nc2cn(C)nc2C(=O)Nc2ccc(F)cc2)nn2c(C(=O)NC3CC3)cnc12` [Example 23], in that order: 0.43 µM, 0.81 µM and 20 nM.
On to `CNc1cc(Nc2cn(C)nc2C(=O)NCCCN(C)C)nn2c(C(=O)NC3CC3)cnc12` [Example 18], for which the IC50 was 0.47 µM in experiment [1] and 0.77 µM in experiment [2]. Moreover, the EC50 in experiment [3] is 50 nM.
For `CCNC(=O)c1nscc1Nc1cc(NC)c2ncc(C(=O)NC(CO)CO)n2n1` [Example 74], in that order: 0.07 µM, 0.02 µM and 7.25 nM.
Taken in the same sequence, the figures for `CNc1cc(Nc2ccoc2C(=O)Nc2ccc(F)cc2)nn2c(C(=O)NC3CC3)cnc12` [Example 56] were 0.03 µM, 0.02 µM and 2.08 nM.
For `CNC(=O)c1occc1Nc1cc(NC)c2ncc(C(=O)NC3CC3)n2n1` [Example 51, N-cyclopropyl-8-(methylamino)-6-((2-(methylcarbamoyl)furan-3-yl)amino)imidazo[1,2-b]pyridazine-3-carboxamide], in that order: 0.05 µM, 0.04 µM and 3.79 nM.
As for `CNc1cc(Nc2cn(C)nc2C(=O)Nc2ccccc2F)nn2c(C(=O)NC3CC3)cnc12` [Example 25], the IC50 in experiment [1] came out at 0.13 µM; in experiment [2] it was 0.19 µM. Besides, in experiment [3], the EC50 came out at 8.89 nM.
For the compound `CNC(=O)c1nn(C)cc1Nc1cc(NC)c2ncc(C(=O)N[C@@H]3C[C@@H]3F)n2n1` [Example 14], the results for the IC50 in experiment [1] and in experiment [2] were 0.28 µM and 0.25 µM, respectively. Besides, the concentration for a half-maximal effect (EC50) in experiment [3] came out at 10 nM.
Taken in the same sequence, the figures for `CNc1cc(Nc2cn(C)nc2C(=O)Nc2cncnc2)nn2c(C(=O)NC3CC3)cnc12` [Example 8] were 0.26 µM, 0.22 µM and 7.67 nM.
With `CNc1cc(Nc2cn(C)nc2C(=O)Nc2ccccn2)nn2c(C(=O)NC3CC3)cnc12` [Example 4], the results for the half-inhibitory concentration (IC50) in experiment [1] and in experiment [2] were 0.35 µM and 0.24 µM, respectively. Besides, the EC50 in experiment [3] was determined as 7.6 nM.
For the compound `CNC(=O)c1nc(C)sc1Nc1cc(NC)c2ncc(C(=O)NC3CC3)n2n1` [Example 84, 5-((3-(cyclopropylcarbamoyl)-8-(methylamino)imidazo[1,2-b]pyridazin-6-yl)amino)-N,2-dimethylthiazole-4-carboxamide], the IC50 in experiment [1] worked out at 0.11 µM; in experiment [2], 0.18 µM. Also, in experiment [3], the EC50 is 4.51 nM.
In the case of `CNc1cc(Nc2cn(C)nc2C(=O)Nc2ccccc2)nn2c(C(=O)NC3CC3)cnc12` [Example 2], the results for the IC50 in experiment [1] and in experiment [2] were 0.94 µM and 0.68 µM, respectively. The EC50 in experiment [3] came out at 3 nM.
For `CNc1cc(Nc2cn(C)nc2C(=O)Nc2cc(C)c(C)nn2)nn2c(C(=O)NC3CC3)cnc12` [Example 7], in that order: 0.32 µM, 0.19 µM and 20 nM.
As for `CCn1cc(Nc2cc(NC)c3ncc(C(=O)NC4CC4)n3n2)c(C(=O)Nc2ccccc2)n1` [Example 31], the IC50 in experiment [1] was determined as 0.72 µM; in experiment [2] it was 0.3 µM. Also, the concentration giving a half-maximal response (EC50) in experiment [3] worked out at 9.39 nM.
With `CCNC(=O)c1nn(C)cc1Nc1cc(NC)c2ncc(C(=O)NC3CC3)n2n1` [Example 20], the concentration for half-maximal inhibition (IC50) is 1.12 µM in experiment [1] and 0.81 µM in experiment [2]. Besides, in experiment [3], the EC50 stood at 30 nM.
Taken in the same sequence, the figures for `CNC(=O)c1nscc1Nc1cc(NC)c2ncc(C(=O)NC3CC3)n2n1` [Example 59, 4-((3-(cyclopropylcarbamoyl)-8-(methylamino)imidazo[1,2-b]pyridazin-6-yl)amino)-N-methylisothiazole-3-carboxamide] were 0.01 µM, 0.03 µM and 1.93 nM.
Taken in the same sequence, the figures for `CNC(=O)c1sccc1Nc1cc(NC)c2ncc(C(=O)NC3CC3)n2n1` [Example 43, N-cyclopropyl-8-(methylamino)-6-((2-(methylcarbamoyl)thiophen-3-yl)amino)imidazo[1,2-b]pyridazine-3-carboxamide] were 16.1 µM, 12.5 µM and 490 nM.
Taken in the same sequence, the figures for `CCNC(=O)c1nscc1Nc1cc(NC)c2ncc(C(=O)NCc3nccs3)n2n1` [Example 75] were 3.31 µM, 2.29 µM and 10 nM.
Regarding `[2H]C([2H])([2H])NC(=O)c1sccc1Nc1cc(NC)c2ncc(C(=O)NC3CCC3)n2n1` [Example 50], the values for the concentration for half-maximal inhibition (IC50) in experiment [1] and in experiment [2] were 0.45 µM and 1 µM, respectively. In experiment [3], the EC50 came to 30 nM.
Taken in the same sequence, the figures for `CNc1cc(Nc2cn(C)nc2C(=O)NC2CC2)nn2c(C(=O)NC3CC3)cnc12` [Example 16] were 0.25 µM, 0.14 µM and 4.49 nM.
For `CNc1cc(Nc2c[nH]nc2C(=O)Nc2ccc(OC)nc2)nn2c(C(=O)NC3CC3)cnc12` [Example 34], in that order: 0.58 µM, 0.81 µM and 2.47 nM.
For `CCNC(=O)c1nscc1Nc1cc(NC)c2ncc(C(=O)NC3CCC3)n2n1` [Example 71], the figures for the IC50 in experiment [1] and in experiment [2] were 0.2 µM and 0.21 µM, respectively. The EC50 in experiment [3] was determined as 8.09 nM.
In the case of `CNC(=O)c1cc(Nc2cc(NC)c3ncc(C(=O)NC4CC4)n3n2)nn1C` [Example 41, N-cyclopropyl-6-((1-methyl-5-(methylcarbamoyl)-1H-pyrazol-3-yl)amino)-8-(methylamino)imidazo[1,2-b]pyridazine-3-carboxamide], the 50% inhibitory concentration (IC50) in experiment [1] and in experiment [2] was 12.5 µM in each case. In addition, in experiment [3], the EC50 was found to be 30 nM.
Take `[2H]C([2H])([2H])NC(=O)c1nscc1Nc1cc(NC)c2ncc(C(=O)NC3CCC3)n2n1` [Example 67]: the IC50 turned out to be 0.47 µM in experiment [1] and 0.23 µM in experiment [2]. Besides, in experiment [3], the concentration giving a half-maximal response (EC50) amounted to 40 nM.
For `CNc1cc(Nc2c[nH]nc2C(=O)Nc2cccnc2)nn2c(C(=O)NC3CC3)cnc12` [Example 33], the IC50 in experiment [1] was found to be 1 µM; in experiment [2], 5.82 µM. In addition, the 50% effective concentration (EC50) in experiment [3] turned out to be 30 nM.
Regarding `[2H]C([2H])([2H])NC(=O)c1nn(C)cc1Nc1cc(NC)c2ncc(C(=O)NC3CC3)n2n1` [Example 10], the IC50 came out at 0.96 µM in experiment [1] and 0.4 µM in experiment [2]. Besides, the EC50 in experiment [3] was determined as 30 nM.
With `CNc1cc(Nc2cnn(C)c2C(=O)O)nn2c(C(=O)NC3CC3)cnc12` [Example 37, 4-((3-(cyclopropylcarbamoyl)-8-(methylamino)imidazo[1,2-b]pyridazin-6-yl)amino)-1-methyl-1H-pyrazole-5-carboxylic acid], the results for the half-inhibitory concentration (IC50) in experiment [1] and in experiment [2] were 2.34 µM and 1.39 µM, respectively. Further, the concentration giving a half-maximal response (EC50) in experiment [3] is 50 nM.
